Experimental data as given in patent publication US20030220329A1, “Method of improving beta-adrenergic receptor function” (DUKE UNIVERSITY, priority 1999, published 2003).
Marks after values point to notes of the source that are not given here.

Tests used:
[1] = test system: glucose transport into white adipose tissue and muscle; assay: Glucose transport into adipose and muscle tissues (14C 2-deoxyglucose accumulation); type: in vivo, B6 mice; conditions: compared to HF control group
Description: (§1) Animals and Diets. Seventy-five 4-week old B6 male mice were obtained from Jackson Laboratories (Bar Harbor, Me.). The animals were housed 5 per cage in a temperature controlled (22° C.) room with a 12 hour light/dark cycle (lights off at 19:00). The HF and low fat (LF) experimental diets were manufactured by Research Diets (New Brunswick, N.J.), and contain 58% and 11% of calories from fat, respectively. The composition of these diets have been described in detail elsewhere (Surwit et al. Metabolism 44:645-651 (1995)). A group of 60 mice were fed the HF diet for the first four weeks of the study; the remaining 15 mice were fed the LF diet. The mice assigned to the LF diet were maintained on this diet throughout the study as a reference group of lean control mice. At week 4, all HF-fed mice were assigned to 4 groups of 15 mice each. The first group remained on the HF diet throughout the study as the “obese” control group. The remaining 3 groups of mice were fed the HF diet containing either the β3AR agonist CL316,243 (CL), diazoxide (Dz) or the combination of the two compounds (CLDz). The CL concentration in the diets was 1 mg/kg (0.001%). This dose had originally been recommended by Dr. Thomas Claus, of Lederle Laboratories and found to be differentially effective in reducing obesity in obesity-prone B6 and obesity-resistant A/J mice (Collins et al, Obes. Res. 43:83-86 5:6S (1997)). The Dz concentration in the diets was 3.2 g/kg (0.32%) was determined to be the maximally effective dose for weight-reduction in dose-response pilot studies.
Glucose Transport. Basal glucose transport into white adipose tissue and muscle was assessed following the method of Skillman and Fletcher (Skillman et al, Exp. Clin. Endocrinol. 87:288-298 (1986)) with minor modifications. Five mice from each group were injected i.p. with 50 mg/kg 2-deoxyglucose (20 μCi/kg ^14C 2-deoxyglucose) mixed with 2-deoxyglucose (final specific activity was 66 μCi/mmole). Twenty minutes later the mice were killed by cervical dislocation. […] The samples were neutralized with 1 M HCl and the ^14C content determined.

β3AR = molecular target: T1, β3AR (Mus musculus, UniProt P25962); assay: β3AR-stimulated adenylyl cyclase activity in EWAT plasma membranes from treated animals; type: biochemical, B6 mice; conditions: membranes from treated HF-fed animals
T1 construct: from tissue
T1 sequence (P25962 whole entry): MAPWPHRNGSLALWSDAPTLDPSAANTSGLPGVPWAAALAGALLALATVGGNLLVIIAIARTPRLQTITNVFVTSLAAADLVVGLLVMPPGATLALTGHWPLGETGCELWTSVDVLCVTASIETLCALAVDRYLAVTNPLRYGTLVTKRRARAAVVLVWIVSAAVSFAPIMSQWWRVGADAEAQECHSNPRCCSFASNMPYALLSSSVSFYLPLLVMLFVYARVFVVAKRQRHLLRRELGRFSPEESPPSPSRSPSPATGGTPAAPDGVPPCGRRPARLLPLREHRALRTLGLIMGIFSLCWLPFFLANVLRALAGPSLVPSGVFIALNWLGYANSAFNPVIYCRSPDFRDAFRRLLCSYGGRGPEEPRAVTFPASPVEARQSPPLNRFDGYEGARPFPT
Description: (§2) Tissue Collection. After 4 weeks of drug treatment, a subset of 10 animals from each group was killed. The epididymal white adipose tissue (EWAT), retroperitoneal (RP) fat, interscapular brown adipose tissue (IBAT) fat pads and gastrocnemius muscle were removed, trimmed, washed, and all tissues were flash-frozen in liquid nitrogen and stored at −80° C. for later determination of β3AR, (EWAT) UCP1 expression (IBAT and RP), UCP2 and 3 expression (IBAT) as well as β3AR-stimulated adenylyl cyclase activity (EWAT).
Preparation of plasma membranes and adenylyl cyclase assay. Adipose tissue was isolated from each group of animals. The tissues from 4 mice per group were pooled and minced and then plasma membranes prepared as previously described (Collins et al, Mol. Endocrinol. 8:518-527 (1994)). Adenylyl cyclase activity was measured using established methods, and the cAMP formed was measured by RIA (Harper et al, J. Cyclic Nucleotide Res. 1:207-218 (1975)) using a polyclonal anti-serum to cAMP (Gettys et al, J. Biol. Chem. 266:15949-15955 (1991)). Protein concentrations were determined by the Bradford method (Bradford. Anal. Biochem 72:248-254 (1976)).

UCP1 mRNA = assay: Northern blot, UCP1 mRNA in IBAT and RP; type: in vivo, B6 mice; conditions: compared to the HF control
[2] = Fasting plasma glucose, insulin and leptin; type: in vivo, B6 mice; conditions: for Fasting plasma glucose: termination of / throughout the study
Description: as §1
Glucose, Insulin, and Leptin. Samples for analysis of insulin, glucose, and leptin were collected as previously reported (Surwit et al. Metabolism 44:645-651 (1995), Collins et al., Endocrinology 138:405-413 (1997)) at day 24 (4 days before the diets were changed), at day 32 (4 days after the change) and biweekly thereafter. In all cases, food was removed 8 hours before samples were collected. Glucose was analyzed by the glucose oxidase method (Beckman Glucose Analyzer II). Insulin and leptin concentrations were determined by double antibody radioimmunoassay (Linco Research, St. Louis. Mo.). The insulin assay was based on a rat standard and the leptin assay used a mouse standard.

[3] = Fat pad weight and estimate of percent body fat; type: in vivo, B6 mice; conditions: wet weight after 4 weeks of drug treatment
Description: Animals and Diets. Seventy-five 4-week old B6 male mice were obtained from Jackson Laboratories (Bar Harbor, Me.). The animals were housed 5 per cage in a temperature controlled (22° C.) room with a 12 hour light/dark cycle (lights off at 19:00). The HF and low fat (LF) experimental diets were manufactured by Research Diets (New Brunswick, N.J.), and contain 58% and 11% of calories from fat, respectively. The composition of these diets have been described in detail elsewhere (Surwit et al. Metabolism 44:645-651 (1995)). A group of 60 mice were fed the HF diet for the first four weeks of the study; the remaining 15 mice were fed the LF diet. The mice assigned to the LF diet were maintained on this diet throughout the study as a reference group of lean control mice. At week 4, all HF-fed mice were assigned to 4 groups of 15 mice each. The first group remained on the HF diet throughout the study as the “obese” control group. […] This dose had originally been recommended by Dr. Thomas Claus, of Lederle Laboratories and found to be differentially effective in reducing obesity in obesity-prone B6 and obesity-resistant A/J mice (Collins et al, Obes. Res. 43:83-86 5:6S (1997)). The Dz concentration in the diets was 3.2 g/kg (0.32%) was determined to be the maximally effective dose for weight-reduction in dose-response pilot studies. Tissue Collection. After 4 weeks of drug treatment, a subset of 10 animals from each group was killed. […] Percent Body Fat. The percent body fat was estimated from the weight of the epididymal fat pad. It has been shown that, as a proportion of total body weight, the epididymal fat pad weight is highly correlated with percent body fat (Rogers et al, Brit. J. Nutr. 43:83-86 (1980), Eisen et al, Growth 45:100-107 (1981)).

[4] = Postprandial plasma triglycerides and non-esterified fatty acids; type: in vivo, B6 mice; conditions: at termination of the study, HF diet + drug for 4 weeks
Description: Animals and Diets. Seventy-five 4-week old B6 male mice were obtained from Jackson Laboratories (Bar Harbor, Me.). The animals were housed 5 per cage in a temperature controlled (22° C.) room with a 12 hour light/dark cycle (lights off at 19:00). The HF and low fat (LF) experimental diets were manufactured by Research Diets (New Brunswick, N.J.), and contain 58% and 11% of calories from fat, respectively. The composition of these diets have been described in detail elsewhere (Surwit et al. Metabolism 44:645-651 (1995)). A group of 60 mice were fed the HF diet for the first four weeks of the study; the remaining 15 mice were fed the LF diet. The mice assigned to the LF diet were maintained on this diet throughout the study as a reference group of lean control mice. At week 4, all HF-fed mice were assigned to 4 groups of 15 mice each. The first group remained on the HF diet throughout the study as the “obese” control group. […] The Dz concentration in the diets was 3.2 g/kg (0.32%) was determined to be the maximally effective dose for weight-reduction in dose-response pilot studies.
Triglycerides and Non-Esterified Fatty Acids. At the termination of the study, a postprandial plasma sample was collected and analyzed for triglyceride and non-esterified fatty acid (NEFA) concentrations using kits from WAKO Diagnostics (Richmond. Va.).

β3AR mRNA = assay: Northern blot, β3AR mRNA in EWAT; type: in vivo, B6 mice; conditions: normalized to cyclophilin
UCP3 = UCP3 expression in IBAT; type: in vivo; conditions: HF-fed B6 mice
Description: as §2
Isolation and Analysis of RNA. Total cellular RNA was prepared using the tissues of 6 mice per group by the cesium chloride gradient method as detailed (Chirgwin et al, Biochemistry 18:5294-5399 (1979)). For Northern blot hybridization, RNA was denatured by the glyoxal procedure, fractionated through 1.2% agarose gels, and blotted onto Biotrans (ICN) nylon membranes (Collins et al, J. Biol. Chem. 263:9067-9070 (1988)). […] A rat cDNA probe for cyclophilin was used as an internal hybridization/quantitation standard. Blots were hybridized and washed as previously described (Collins et al, Mol. Endocrinol. 8:518-527 (1994), (Thomas. Proc. Natl. Acad. Sci. USA 77:5201-5205 (1980)). The intensity of hybridization signals was quantified by PhosphorImager (ImageQuant/Storm) and normalized to the values for cyclophilin.

For `C[C@H](Cc1ccc2c(c1)OC(C(=O)[O-])(C(=O)[O-])O2)NC[C@H](O)c1cccc(Cl)c1.[Na+].[Na+]` [CL, disodium (R,R)-5-[2[[2-(3-chlorophenyl)-2-hydroxyethyl]-amino]propyl]-1,3-benzodioxole-2,2-dicarboxylate], the “Glucose transport into EWAT” value [1] was “improved glucose transport into EWAT”, the “Glucose transport into RP” value ([1]; ANOVA trend p=0.07) was “enhanced glucose transport” and the “Adenylyl cyclase activity in response to CL in EWAT plasma membranes” value (β3AR) was “a general decrease in adenylyl cyclase activity”. For the same compound, the “UCP1 mRNA levels in IBAT” value (UCP1 mRNA) was “greater increase in UCP1 expression”, the Fasting plasma glucose ([2]; compared to pretreatment) was “returned to the pretreatment values” and the “Epididymal Fat Pad Weight” value [3] was 0.943 +/− 0.129^b grams. For the same compound, the “Retroperitoneal Fat Pad Weight” value [3] was 0.200 +/− 0.024^b grams, the NEFA [4] was 0.69 +/− 0.04^b mEq/L and the “β3AR mRNA levels in EWAT” value (β3AR mRNA) was “failed to restore β3AR expression or function”.
For `CC1=NS(=O)(=O)c2cc(Cl)ccc2N1` [Dz, diazoxide], the “Glucose transport into EWAT” value [1] was “did not reach a statistically significant level”, the “Adenylyl cyclase activity in response to CL in EWAT plasma membranes” value (β3AR) was “restored the efficacy of the β3AR to stimulate adenylyl cyclase” and the “UCP1 mRNA levels in IBAT” value (UCP1 mRNA) was “greater increase in UCP1 expression”. For the same compound, the Fasting plasma insulin ([2]; end of / throughout the study, compared to pretreatment) was “remained significantly below pretreatment levels throughout the study”, the Leptin ([2]; plasma, at the conclusion of the study, HF diet + drug for 4 weeks) was 4.2 +/− 0.8^c ng/ml and the Fasting plasma glucose ([2]; compared to pretreatment) was “remained lower than pretreatment levels throughout the study”. For the same compound, the “Epididymal Fat Pad Weight” value [3] was 0.691 +/− 0.083^b,c grams, the “Retroperitoneal Fat Pad Weight” value [3] was 0.123 +/− 0.014^b,c grams and the NEFA [4] was 0.82 +/− 0.08^b mEq/L. For the same compound, the “UCP3 expression in IBAT” value (UCP3) was “significant increase in UCP3 expression in IBAT” and the “β3AR mRNA levels in EWAT” value (β3AR mRNA) was “levels comparable to the LF fed controls”.
